# Key:
# [1] = system: ROS; test: ROS release from PMA-stimulated neutrophils, lucigenin chemiluminescence; assay type: cell-based, human; conditions: PMA + lucygenin, % of stimulated control
# Source text: (§1) Peripheral venous blood was taken from healthy human donors (20–35 years old) in the Warsaw Blood Donation Centre. […] The study conformed to the principles of the Declaration of Helsinki. Neutrophils were isolated using a standard method of dextran sedimentation prior to hypotonic lysis of erythrocytes and to centrifugation in a Ficoll Hypaque gradient. The purity of neutrophil preparations was >97 %, and viability measured by trypan blue exclusion was >98 %. Neutrophils were then resuspended in appropriate medium to perform the selected assay.
# (§2) Generation of oxidants by f-MLP or PMA-stimulated neutrophils was measured using luminol- or lucigenin-dependent chemiluminescence tests. 70 μL of cell suspension (2 × 10^5/mL) in HBSS was incubated with 50 μL of compound or extract solution (final concentrations of 1, 5 and 20 μM or μg/mL) together with 50 μL of luminol (100 μM) or lucigenin (200 μM) solution. ROS production was initiated by the addition of 30 μL of f-MLP (0.1 μg/mL) or PMA (1 μg/mL). Changes in chemiluminescence at 37 °C were measured immediately for 45 min at intervals of 2 min in a microplate reader (Biotek). Ascorbic acid was used as a positive control.
# [2] = system: ROS; test: ROS release from f-MLP-stimulated neutrophils, luminol chemiluminescence; assay type: cell-based, human; conditions: % of stimulated control
# Source text: as §1, §2
# [3] = system: elastase; test: Elastase release from cytochalasin A/f-MLP-stimulated neutrophils (SAAVNA substrate); assay type: cell-based, human; conditions: for Elastase release Mean(%): % of stimulated control
# Source text: as §1
# Neutrophil elastase release was determined using SAAVNA as a substrate, and […] was measured spectrophotometrically. 100 μL of cell suspension (5 × 10^5/mL) in HBSS was preincubated with 50 μL of compound or extract solution (final concentrations of 1, 5 and 20 μM or μg/mL) for 15 min at 37 °C and then stimulated with 50 μL of cytochalasin A (5 μg/mL) and f-MLP (0.1 μg/mL) for 15 min. The neutrophils were centrifuged (2000 rpm; 10 min; 4 °C). After the addition of 50 μL of SAAVNA solution (1.6 mg/mL) to 100 μL of supernatant, the extent of […] was measured spectrophotometrically for 1 h at intervals of 20 min, at 412 nm using a microplate reader (BioTek). According to Kanashiro et al., quercetin was used as a positive control.
# [4] = system: MMP-9; test: MMP-9 production by LPS-stimulated neutrophils (ELISA); assay type: cell-based, human; conditions: LPS 100 ng/mL, 24 h, % of stimulated control
# Source text: as §1
# (§3) Neutrophils (2 × 10^5/mL) were cultured in 24-well plates in RPMI 1640 medium with 10 % FBS, 10 mM HEPES, and 2 mM L-glutamine in the absence or presence of LPS (100 ng/mL) for 24 h at 37 °C with 5 % CO2 in the absence or presence of extract at concentrations of 1, 5 and 20 μg/mL, and compounds at concentrations of 1, 5 and 20 μM were added to 1 mL of cell suspension 1 h before the stimuli. After 24 h, the neutrophils were harvested and centrifuged (2000 RPM; 10 min; 4 °C). The amount of IL-8 or MMP-9 released into cell supernatants was measured by enzyme-linked immunosorbent assay (ELISA) following the manufacturer’s instructions (R&D Systems, Minneapolis, MN, USA). PBS was used as a non-stimulated control. Curcumin was used as a positive control, according to Aggarwal and Harikumar and Antoine et al..
# [5] = system: MPO; test: MPO release from cytochalasin A/f-MLP-stimulated neutrophils (TMB substrate); assay type: cell-based, human; conditions: for MPO release Mean(%): cytochalasin A/f-MLP, % of stimulated control
# Source text: Peripheral venous blood was taken from healthy human donors (20-35 years old) in the Warsaw Blood Donation Centre. […] The study conformed to the principles of the Declaration of Helsinki. Neutrophils were isolated using a standard method of dextran sedimentation prior to hypotonic lysis of erythrocytes and to centrifugation in a Ficoll Hypaque gradient. The purity of neutrophil preparations was >97 %, and viability measured by trypan blue exclusion was >98 %. Neutrophils were then resuspended in appropriate medium to perform the selected assay. Neutrophil MPO release was determined using TMB as a substrate. […] After centrifugation (2000 rpm; 10 min; 4 °C), 100 μL of supernatant was incubated with 50 μL of the TMB liquid substrate system. The reaction was terminated after 20 min by the addition of 2 M hydrochloric acid. The absorbance was measured at […] using a microplate reader (BioTek). Gallic acid was used as a positive control, according to Kroes et al..
# [6] = target: T1, bovine testis hyaluronidase (Bos taurus, UniProt Q2YDK3); test: Hyaluronidase activity, USP turbidimetric method modified; assay type: biochemical; conditions: for Hyaluronidase activity Mean(%): % of 100% active enzyme control
# T1 construct: purchased Sigma–Aldrich GmbH (Steinheim, Germany); host or cells: bovine testis
# T1 sequence (Q2YDK3 36-553): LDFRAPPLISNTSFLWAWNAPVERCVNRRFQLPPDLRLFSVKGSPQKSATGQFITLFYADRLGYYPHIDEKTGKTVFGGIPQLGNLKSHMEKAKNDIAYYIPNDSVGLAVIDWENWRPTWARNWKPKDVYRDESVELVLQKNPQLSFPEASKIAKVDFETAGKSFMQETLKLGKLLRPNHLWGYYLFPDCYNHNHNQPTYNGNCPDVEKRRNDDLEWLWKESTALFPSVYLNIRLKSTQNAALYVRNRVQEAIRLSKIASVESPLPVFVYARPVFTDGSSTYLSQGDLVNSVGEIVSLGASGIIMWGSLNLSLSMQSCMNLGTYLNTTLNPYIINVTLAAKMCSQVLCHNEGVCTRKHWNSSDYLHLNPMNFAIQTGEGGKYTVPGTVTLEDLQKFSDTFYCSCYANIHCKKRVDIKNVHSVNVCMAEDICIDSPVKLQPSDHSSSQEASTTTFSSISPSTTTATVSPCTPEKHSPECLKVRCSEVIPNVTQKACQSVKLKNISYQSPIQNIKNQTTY
# Source text: The […] flowering herb was collected from its natural habitat in Umer in the Świętokrzyskie region (Poland) in July 2011. Its identity was confirmed anatomically and morphologically based on its pharmacopoeial monograph in the Department of Pharmacognosy and Molecular Basis of Phytotherapy, Medical University of Warsaw, where the voucher specimen UMER2011 is deposited. […] […]), castalagin ([…] (SB) and […]. 1, 2) from […] performed according to Piwowarski and Kiss. […] Isolated ellagitannins were of >95 % purity (determined by the HPLC-DAD-CAD method). […] Gallic acid (>96 % purity) was purchased from ChromaDex (Santa Ana, USA). Propidium iodide was purchased from BD Biosciences (San Diego, CA, USA). All substances used were of >95 % purity. Phosphate-buffered saline (PBS) was purchased from Gibco (Carlsbad, CA, USA). The influence of extract and ellagitannins on hyaluronidase activity was measured using the USP turbidimetric method modified by Piwowarski et al. […] Heparin was used as a positive control.
# [7] = system: IL-8; test: IL-8 production by LPS-stimulated neutrophils (ELISA); assay type: cell-based, human; conditions: LPS 100 ng/mL, 24 h, % of stimulated control
# Source text: as §1, §3
# [8] = system: ethanol-induced gastric lesions; set-up: method as in PMID 12590500; conditions: mouse; orally 50 mg/kg b.w.; cited from earlier work
smiles,measurement,setting,value
"O=C1OC[C@H]2OC(=O)c3cc(O)c(O)c(O)c3-c3c(O)c(O)c(O)c4c3C(=O)O[C@H]([C@H]3OC(=O)c5c-4c(O)c(O)c(O)c5[C@H]3O)[C@@H]2OC(=O)c2cc(O)c(O)c(O)c2-c2c1cc(O)c(O)c2O [C, castalagin]",ROS release Mean(%),[1]; 1 μM,"79,28%"
same,ROS release Mean(%),[1]; 5 μM,"60,48%"
same,ROS release Mean(%),[1]; 20 μM,"37,00%"
same,ROS release Mean(%),[2]; 1 μM,"62,41%"
same,ROS release Mean(%),[2]; 5 μM,"40,10%"
same,ROS release Mean(%),[2]; 20 μM,"29,55%"
same,Elastase release Mean(%),[3]; 1 μM,"96,55%"
same,Elastase release Mean(%),[3]; 5 μM,"102,40%"
same,Elastase release Mean(%),[3]; 20 μM,"105,22%"
same,activity on elastase release,"[3]; tested concentrations (1, 5, 20 μM)",completely inactive
same,MMP-9 production Mean (%),[4]; 1 μM,"92,70%"
same,MMP-9 production Mean (%),[4]; 5 μM,"88,18%"
same,MMP-9 production Mean (%),[4]; 20 μM,"96,42%"
same,MPO release Mean(%),[5]; 1 μM,"75,53%"
same,MPO release Mean(%),[5]; 5 μM,"56,44%"
same,MPO release Mean(%),[5]; 20 μM,"29,85%"
same,activity on MPO release,"[5]; all tested concentrations (1, 5, 20 μM)",expressed inhibitory activity at all tested concentrations
same,IC50,[6],3.1 ± 0.2 µM
same,Hyaluronidase activity Mean(%),[6]; 1 μM,"87,07%"
same,Hyaluronidase activity Mean(%),[6]; 2 μM,"73,08%"
same,Hyaluronidase activity Mean(%),[6]; 5 μM,"19,92%"
same,Hyaluronidase activity Mean(%),[6]; 20 μM,"3,13%"
same,IL-8 production Mean (%),[7]; 1 μM,"92,43%"
same,IL-8 production Mean (%),[7]; 5 μM,"75,24%"
same,IL-8 production Mean (%),[7]; 20 μM,"70,24%"
same,reduction of ethanol-induced gastric lesions,[8],very potent in the reduction of ethanol-induced gastric lesions
